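Where inhibition never reached the appropriate level, the endpoint shown equals the highest concentration tested. Otherwise, values were interpolated linearly from a five-concentration, 48-hour dose response in 96-well plates. The concentration for 50% growth inhibition is given as GI50.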 Calls of active or inactive are those of the source. Cut-off read from the data, not from the text of the source: active = GI50 up to about 1.1 µM and inactive = higher.
Legend:
Experiment in all cases: inhibition of tumour cell growth, NCI panel, 48 h
SF-539 = tested on: SF-539
KM12 = tested on: KM12
HCT-15 = tested on: HCT-15
A498 = tested on: A498
SK-MEL-2 = tested on: SK-MEL-2
SR = tested on: SR
NCI-H460 = tested on: NCI-H460
LXFL 529 = tested on: LXFL 529
ACHN = tested on: ACHN
NCI-H23 = tested on: NCI-H23
RXF 631 = tested on: RXF 631
UO-31 = tested on: UO-31
K562 = tested on: K562
SF-268 = tested on: SF-268
SNB-75 = tested on: SNB-75
HOP-62 = tested on: HOP-62
786-0 = tested on: 786-0
SK-MEL-5 = tested on: SK-MEL-5
LOX IMVI = tested on: LOX IMVI
M14 = tested on: M14
OVCAR-4 = tested on: OVCAR-4
NCI-H226 = tested on: NCI-H226
COLO 205 = tested on: COLO 205
SW-620 = tested on: SW-620
MOLT-4 = tested on: MOLT-4
DMS-114 = tested on: DMS-114
SK-MEL-28 = tested on: SK-MEL-28
UACC-257 = tested on: UACC-257
RXF 393 = tested on: RXF 393
SN12C = tested on: SN12C
SF-295 = tested on: SF-295
HCT-116 = tested on: HCT-116
Malme-3M = tested on: Malme-3M
OVCAR-5 = tested on: OVCAR-5
HCC 2998 = tested on: HCC 2998
OVCAR-3 = tested on: OVCAR-3
OVCAR-8 = tested on: OVCAR-8
HL-60 = tested on: HL-60
DLD-1 = tested on: DLD-1
IGROV-1 = tested on: IGROV-1
DMS-273 = tested on: DMS-273
KM-20L2 = tested on: KM-20L2
SK-OV-3 = tested on: SK-OV-3
SNB-19 = tested on: SNB-19
A549 = tested on: A549
TK-10 = tested on: TK-10
NCI-H522 = tested on: NCI-H522
HOP-18 = tested on: HOP-18
M19-MEL = tested on: M19-MEL
EKVX = tested on: EKVX
SNB-78 = tested on: SNB-78
CCRF-CEM = tested on: CCRF-CEM
HT-29 = tested on: HT-29
U-251 = tested on: U-251

SMILES: COc1cc(/C=C(\C)c2ccc3c(c2)OCO3)cc(OC)c1OC
- GI50 (SF-539): 14.1 µM (inactive)
- GI50 (KM12): 44.5 µM (inactive)
- GI50 (HCT-15): 26.1 µM
- GI50 (A498): 17.6 µM (inactive)
- GI50 (SK-MEL-2): 23.4 µM (inactive)
- GI50 (SR): 19.3 µM (inactive)
- GI50 (NCI-H460): 34.2 µM (inactive)
- GI50 (LXFL 529): 14.7 µM (inactive)
- GI50 (ACHN): 10.3 µM (inactive)
- GI50 (NCI-H23): 37.5 µM (inactive)
- GI50 (RXF 631): 28.6 µM (inactive)
- GI50 (UO-31): 27.3 µM (inactive)
- GI50 (K562): 10.4 µM (inactive)
- GI50 (SF-268): 26.9 µM (inactive)
- GI50 (SNB-75): 5 µM (inactive)
- GI50 (HOP-62): 70 µM (inactive)
- GI50 (786-0): 21.3 µM (inactive)
- GI50 (SK-MEL-5): 11.7 µM (inactive)
- GI50 (LOX IMVI): 16 µM (inactive)
- GI50 (M14): 36.7 µM (inactive)
- GI50 (OVCAR-4): 32.5 µM (inactive)
- GI50 (NCI-H226): 33.7 µM (inactive)
- GI50 (COLO 205): 18.5 µM (inactive)
- GI50 (SW-620): 19.1 µM (inactive)
- GI50 (MOLT-4): 16.7 µM (inactive)
- GI50 (DMS-114): 25.1 µM (inactive)
- GI50 (SK-MEL-28): 41.1 µM (inactive)
- GI50 (UACC-257): 29.2 µM (inactive)
- GI50 (RXF 393): 34.1 µM (inactive)
- GI50 (SN12C): 26.2 µM (inactive)
- GI50 (SF-295): 25.2 µM (inactive)
- GI50 (HCT-116): 31.8 µM (inactive)
- GI50 (Malme-3M): 19.8 µM (inactive)
- GI50 (OVCAR-5): 55.3 µM (inactive)
- GI50 (HCC 2998): 25.5 µM (inactive)
- GI50 (OVCAR-3): 34.8 µM (inactive)
- GI50 (OVCAR-8): 29.8 µM (inactive)
- GI50 (HL-60): 15.7 µM (inactive)
- GI50 (DLD-1): 18.5 µM (inactive)
- GI50 (IGROV-1): 25.1 µM (inactive)
- GI50 (DMS-273): 26 µM (inactive)
- GI50 (KM-20L2): 32.4 µM (inactive)
- GI50 (SK-OV-3): 28 µM (inactive)
- GI50 (SNB-19): 50.7 µM (inactive)
- GI50 (A549): 18.5 µM (inactive)
- GI50 (TK-10): 47 µM (inactive)
- GI50 (NCI-H522): 20.2 µM (inactive)
- GI50 (HOP-18): 64 µM (inactive)
- GI50 (M19-MEL): 31.4 µM (inactive)
- GI50 (EKVX): 10.4 µM (inactive)
- GI50 (SNB-78): 37.9 µM (inactive)
- GI50 (CCRF-CEM): 19.8 µM (inactive)
- GI50 (HT-29): 25.7 µM (inactive)
- GI50 (U-251): 50.4 µM (inactive)

Reference: ChEMBL document CHEMBL1201862, “PubChem BioAssay data set” (2004)
